This note sets out measurements from PubChem BioAssay (NCI).

Structures are written as SMILES.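 Interpolation was linear, between the two tested concentrations surrounding the appropriate level; five concentrations were tested over 48 hours in 96-well plates. At the GI50, growth is halved. Definition used: TGI = concentration required for complete inhibition of growth.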

Some test systems named below: A549 NSCLC; HOP-62 NSCLC; MALME-3M melanoma; NCI-H23 lung; NCI-H522 lung; SF-539 CNS; SW-620 colon; UO-31 renal; RPMI-8226 leukemia.
Common to all, as to assay: growth of human tumour cells (NCI), 48 h

For the compound `CC1=C(C(=O)Nc2ccccc2)C(c2ccc(Cl)c(Cl)c2)C(C(=O)Nc2ccccc2)=C(C)N1`, the TGI in the assay with A549 NSCLC is 25.3 µM; in the assay with HOP-62 NSCLC, 28.6 µM; in the assay with MALME-3M melanoma, 26.7 µM; in the assay on NCI-H23 lung, 27 µM; with NCI-H522 lung, 25.8 µM; with SF-539 CNS, 32.3 µM. Moreover, the TGI in the assay on SW-620 colon turned out to be 34.7 µM; with UO-31 renal it was 26 µM.
As for `NNc1ncnc2nc[nH]c12`, the GI50 in the assay on A549 NSCLC is 4.94 µM; in the assay with HOP-62 NSCLC, 2.25 µM; in the assay with MALME-3M melanoma, 28.6 µM; in the assay on NCI-H23 lung it was 10.1 µM; in the assay with NCI-H522 lung, 1830 nM; in the assay on RPMI-8226 leukemia, 2.09 µM. Also, the GI50 with SF-539 CNS is 21.2 µM; with SW-620 colon, 3.91 µM; in the assay with UO-31 renal, 2.48 µM. Moreover, the TGI is greater than 38.6 µM in the assay on A549 NSCLC; 10.5 µM in the assay on HOP-62 NSCLC; greater than 100 µM with MALME-3M melanoma; greater than 100 µM with NCI-H23 lung; greater than 100 µM in the assay on NCI-H522 lung; 17.1 µM in the assay with RPMI-8226 leukemia. Further, the TGI with SF-539 CNS, in the assay on SW-620 colon and in the assay on UO-31 renal was greater than 100 µM throughout.
As for `CCOC(=O)Nc1c(C)nc2ccccn12`, the GI50 in the assay with A549 NSCLC was greater than 100 µM; in the assay on HOP-62 NSCLC it was greater than 100 µM; in the assay on MALME-3M melanoma, greater than 100 µM; in the assay on NCI-H23 lung it was greater than 100 µM; in the assay with NCI-H522 lung it was greater than 100000 nM; in the assay with RPMI-8226 leukemia it was greater than 100 µM. Further, the GI50 in the assay with SF-539 CNS, in the assay on SW-620 colon and with UO-31 renal was greater than 100 µM throughout. Also, the TGI in the assay with A549 NSCLC, in the assay with HOP-62 NSCLC, in the assay on MALME-3M melanoma, in the assay on NCI-H23 lung, in the assay with NCI-H522 lung and in the assay on RPMI-8226 leukemia was greater than 100 µM each time. In addition, the TGI in the assay on SF-539 CNS, in the assay with SW-620 colon and in the assay with UO-31 renal was greater than 100 µM each time.
As to `COc1cc(/C=C2\CCCCC3=C2N=C2SC(C)=CN2C3c2cc(OC)c(OC)c(OC)c2)cc(OC)c1OC` (configuration not stated), the GI50 was 20.4 µM in the assay with A549 NSCLC; 4.7 µM in the assay with HOP-62 NSCLC; 15.2 µM in the assay with MALME-3M melanoma; 32.2 µM with NCI-H23 lung; 1320 nM with NCI-H522 lung; 0.013 µM in the assay on RPMI-8226 leukemia. Also, the GI50 in the assay on SF-539 CNS was greater than 100 µM; with SW-620 colon, greater than 100 µM; in the assay on UO-31 renal it was 22.6 µM. Besides, the TGI with A549 NSCLC, in the assay on HOP-62 NSCLC, in the assay with MALME-3M melanoma, with NCI-H23 lung, with NCI-H522 lung and in the assay with RPMI-8226 leukemia was greater than 100 µM throughout. Moreover, the TGI with SF-539 CNS, with SW-620 colon and with UO-31 renal was greater than 100 µM each time.
Regarding `O=c1[nH]c(=O)n(C2CC(O)C(CO)O2)cc1OS(=O)(=O)C(F)(F)F` (configuration not stated), the TGI in the assay on A549 NSCLC, in the assay with HOP-62 NSCLC, with MALME-3M melanoma, in the assay on NCI-H23 lung, in the assay on NCI-H522 lung and with RPMI-8226 leukemia was greater than 100 µM each time. Moreover, the TGI with SF-539 CNS and in the assay on SW-620 colon was greater than 100 µM throughout.
Turning to `N#CC(I)CS(=O)(=O)c1ccccc1` (configuration not stated), the GI50 with A549 NSCLC was 22.7 µM; with HOP-62 NSCLC, 19.3 µM; with MALME-3M melanoma, 2.13 µM; in the assay on NCI-H23 lung it was 16.7 µM; with NCI-H522 lung, 1340 nM; in the assay with RPMI-8226 leukemia, 17.5 µM. In addition, the results for the GI50 in the assay with SF-539 CNS, in the assay on SW-620 colon and in the assay on UO-31 renal were 18.2 µM, 1.78 µM and 12 µM, respectively. Moreover, the TGI was found to be 47.6 µM in the assay with A549 NSCLC; 38.4 µM in the assay on HOP-62 NSCLC; 4.27 µM in the assay on MALME-3M melanoma; 31.7 µM with NCI-H23 lung; 2.78 µM with NCI-H522 lung; 41.4 µM with RPMI-8226 leukemia. The TGI in the assay with SF-539 CNS amounted to 32.5 µM; in the assay on SW-620 colon, 3.49 µM; in the assay on UO-31 renal it was 25.8 µM.
Turning to `O=[N+]([O-])c1cccnc1N=Nc1c(O)[nH]c2ccccc12`, the TGI in the assay on A549 NSCLC worked out at 47.7 µM; in the assay with HOP-62 NSCLC, 60.7 µM; with MALME-3M melanoma, 56.3 µM; with NCI-H522 lung, 69.3 µM; in the assay with RPMI-8226 leukemia, 79.2 µM; in the assay on SF-539 CNS, 12.7 µM. Also, the results for the TGI in the assay on SW-620 colon and with UO-31 renal were 87.8 µM and 81.2 µM, respectively.
As to `O=C1C=C(Nc2ccc(Cl)cc2C(=O)c2ccccc2)c2ccccc2C1=O`, the TGI in the assay on A549 NSCLC, in the assay with HOP-62 NSCLC, in the assay with MALME-3M melanoma, in the assay on NCI-H23 lung, in the assay on NCI-H522 lung and in the assay with SF-539 CNS was greater than 100 µM each time. Besides, the TGI in the assay with SW-620 colon and in the assay on UO-31 renal was greater than 100 µM throughout.
Take `Nc1c(S(=O)(=O)c2ccc(Cl)cc2)c2nc3ccccc3nc2n2ccnc12`: the TGI is greater than 100 µM in the assay with A549 NSCLC; greater than 100 µM in the assay on MALME-3M melanoma; greater than 100 µM in the assay with NCI-H23 lung; greater than 100 µM in the assay with NCI-H522 lung; greater than 100 µM in the assay on RPMI-8226 leukemia; 36.2 µM with SF-539 CNS. The compound also yielded a TGI in the assay on UO-31 renal greater than 100 µM.
For `CN1Nc2ccccc2CC1=O`, the TGI in the assay on A549 NSCLC, in the assay on HOP-62 NSCLC, in the assay on MALME-3M melanoma, in the assay on NCI-H23 lung, with RPMI-8226 leukemia and in the assay on SF-539 CNS was greater than 100 µM in each case. The TGI in the assay with SW-620 colon and with UO-31 renal was greater than 100 µM throughout.
Consider `C=C(C)C(C1C=C(CCC(C=O)=C(C)C)C(=O)O1)C1(OC)C=C(C)C(=O)O1` (configuration not stated), for which the GI50 in the assay with A549 NSCLC is greater than 100 µM; with HOP-62 NSCLC, greater than 100 µM; in the assay on MALME-3M melanoma, greater than 100 µM; in the assay on NCI-H23 lung, 91.3 µM; in the assay with NCI-H522 lung, greater than 100000 nM; with RPMI-8226 leukemia, greater than 100 µM. In addition, the GI50 with SF-539 CNS is greater than 100 µM; with SW-620 colon, 39.6 µM; in the assay with UO-31 renal, 97.1 µM. In addition, the TGI with A549 NSCLC, with HOP-62 NSCLC, in the assay with MALME-3M melanoma, in the assay with NCI-H23 lung, in the assay with NCI-H522 lung and in the assay on RPMI-8226 leukemia was greater than 100 µM throughout. For the same compound, the TGI in the assay with SF-539 CNS, in the assay on SW-620 colon and in the assay on UO-31 renal was greater than 100 µM each time.
